{"source": "PubChem BioAssay AID1259407", "about": "(Chemical Carcinogenesis Research Information System (CCRIS), 2018)", "test_system": "CCRIS mutagenicity, Ames/micronucleus/aberration tests", "assay": "CCRIS mutagenicity studies", "key": {"[1]": {"conditions": "Test System: AMES SALMONELLA TYPHIMURIUM, Strain/Indicator: TA98, Metabolic Activation: NONE, Method: STANDARD PLATE"}, "[2]": {"conditions": "Test System: AMES SALMONELLA TYPHIMURIUM, Strain/Indicator: TA98, Metabolic Activation: RAT, LIVER, S-9, AROCLOR 1254, Method: STANDARD PLATE"}, "[3]": {"conditions": "Test System: AMES SALMONELLA TYPHIMURIUM, Strain/Indicator: TA100, Metabolic Activation: NONE, Method: STANDARD PLATE"}, "[4]": {"conditions": "Test System: AMES SALMONELLA TYPHIMURIUM, Strain/Indicator: TA100, Metabolic Activation: RAT, LIVER, S-9, AROCLOR 1254, Method: STANDARD PLATE"}, "[5]": {"conditions": "Test System: AMES SALMONELLA TYPHIMURIUM, Strain/Indicator: TA1535, Metabolic Activation: NONE, Method: STANDARD PLATE"}, "[6]": {"conditions": "Test System: AMES SALMONELLA TYPHIMURIUM, Strain/Indicator: TA1537, Metabolic Activation: NONE, Method: STANDARD PLATE"}, "[7]": {"conditions": "Test System: AMES SALMONELLA TYPHIMURIUM, Strain/Indicator: TA1537, Metabolic Activation: RAT, LIVER, S-9, AROCLOR 1254, Method: STANDARD PLATE"}, "[8]": {"conditions": "Test System: AMES SALMONELLA TYPHIMURIUM, Strain/Indicator: TA1538, Metabolic Activation: NONE, Method: STANDARD PLATE"}, "[9]": {"conditions": "Test System: AMES SALMONELLA TYPHIMURIUM, Strain/Indicator: TA98, Metabolic Activation: NONE, Method: PREINCUBATION"}, "[10]": {"conditions": "Test System: AMES SALMONELLA TYPHIMURIUM, Strain/Indicator: TA100, Metabolic Activation: NONE, Method: PREINCUBATION"}}, "note": "Active and inactive are the calls of the source. How the calls were made is not given here.", "data": [{"smiles": "COc1ccc([C@@H]2CC(=O)c3c(O)cc(O[C@@H]4O[C@H](CO[C@@H]5O[C@@H](C)[C@H](O)[C@@H](O)[C@H]5O)[C@@H](O)[C@H](O)[C@H]4O)cc3O2)cc1O", "values": [{"measurement": "mutagenic call", "setting": "[1]", "result": "inactive; negative"}, {"measurement": "mutagenic call", "setting": "[2]", "result": "inactive; negative"}, {"measurement": "mutagenic call", "setting": "[3]", "result": "inactive; negative"}, {"measurement": "mutagenic call", "setting": "[4]", "result": "inactive; negative"}, {"measurement": "mutagenic call", "setting": "[5]", "result": "inactive; negative"}, {"measurement": "mutagenic call", "setting": "Test System: AMES SALMONELLA TYPHIMURIUM, Strain/Indicator: TA1535, Metabolic Activation: RAT, LIVER, S-9, AROCLOR 1254, Method: STANDARD PLATE", "result": "inactive; negative"}, {"measurement": "mutagenic call", "setting": "[6]", "result": "inactive; negative"}, {"measurement": "mutagenic call", "setting": "[7]", "result": "inactive; negative"}, {"measurement": "mutagenic call", "setting": "[8]", "result": "inactive; negative"}, {"measurement": "mutagenic call", "setting": "Test System: AMES SALMONELLA TYPHIMURIUM, Strain/Indicator: TA1538, Metabolic Activation: RAT, LIVER, S-9, AROCLOR 1254, Method: STANDARD PLATE", "result": "inactive; negative"}, {"measurement": "mutagenic call", "setting": "Test System: E. COLI, Strain/Indicator: WP2, Metabolic Activation: NONE, Method: STANDARD PLATE", "result": "inactive; negative"}, {"measurement": "mutagenic call", "setting": "Test System: E. COLI, Strain/Indicator: WP2, Metabolic Activation: RAT, LIVER, S-9, AROCLOR 1254, Method: STANDARD PLATE", "result": "inactive; negative"}]}, {"smiles": "NC(=O)CCC(=O)Nc1cc(Cl)c(Cl)c(Cl)c1", "values": [{"measurement": "mutagenic call", "setting": "[1]", "result": "inactive; negative"}, {"measurement": "mutagenic call", "setting": "[2]", "result": "inactive; negative"}, {"measurement": "mutagenic call", "setting": "[3]", "result": "inactive; negative"}, {"measurement": "mutagenic call", "setting": "[4]", "result": "inactive; negative"}]}, {"smiles": "CCc1ccc(N)cc1", "values": [{"measurement": "mutagenic call", "setting": "Test System: E. COLI, Strain/Indicator: WP2 UVRA, Metabolic Activation: NONE, Method: FLUCTUATION TEST", "result": "inactive; negative"}]}, {"smiles": "Cc1ccc2c(c1[N+](=O)[O-])C(=O)c1ccccc1C2=O", "values": [{"measurement": "mutagenic call", "setting": "[1]", "result": "active; positive"}, {"measurement": "mutagenic call", "setting": "[2]", "result": "active; positive"}, {"measurement": "mutagenic call", "setting": "[4]", "result": "active; positive"}, {"measurement": "mutagenic call", "setting": "[5]", "result": "inactive; negative"}, {"measurement": "mutagenic call", "setting": "[7]", "result": "active; positive"}, {"measurement": "mutagenic call", "setting": "[8]", "result": "active; positive"}]}, {"smiles": "Nc1ncc(/C=C/c2ccc([N+](=O)[O-])o2)nn1", "values": [{"measurement": "mutagenic call", "setting": "Test System: E. COLI, Strain/Indicator: WP2, Metabolic Activation: NONE, Method: SPOT", "result": "active; positive"}, {"measurement": "mutagenic call", "setting": "Test System: E. COLI, Strain/Indicator: WP2 UVRA, Metabolic Activation: NONE, Method: SPOT", "result": "active; positive"}, {"measurement": "mutagenic call", "setting": "Test System: E. COLI, Strain/Indicator: WP2 UVRA, Metabolic Activation: NONE, Method: STANDARD PLATE", "result": "active; positive"}]}, {"smiles": "COC(=O)c1ccccc1N", "values": [{"measurement": "mutagenic call", "setting": "Test System: AMES SALMONELLA TYPHIMURIUM, Strain/Indicator: TA97, Metabolic Activation: NONE, Method: PREINCUBATION", "result": "inactive; negative"}, {"measurement": "mutagenic call", "setting": "Test System: AMES SALMONELLA TYPHIMURIUM, Strain/Indicator: TA97, Metabolic Activation: RAT, LIVER, S-9, AROCLOR 1254, Method: PREINCUBATION", "result": "inactive; negative"}, {"measurement": "mutagenic call", "setting": "[9]", "result": "inactive; negative"}, {"measurement": "mutagenic call", "setting": "Test System: AMES SALMONELLA TYPHIMURIUM, Strain/Indicator: TA98, Metabolic Activation: S-9, Method: PREINCUBATION", "result": "inactive; negative"}, {"measurement": "mutagenic call", "setting": "[10]", "result": "inactive; negative"}, {"measurement": "mutagenic call", "setting": "Test System: AMES SALMONELLA TYPHIMURIUM, Strain/Indicator: TA100, Metabolic Activation: S-9, Method: PREINCUBATION", "result": "inactive; negative"}, {"measurement": "mutagenic call", "setting": "Test System: AMES SALMONELLA TYPHIMURIUM, Strain/Indicator: TA102, Metabolic Activation: NONE, Method: PREINCUBATION", "result": "inactive; negative"}, {"measurement": "mutagenic call", "setting": "Test System: AMES SALMONELLA TYPHIMURIUM, Strain/Indicator: TA102, Metabolic Activation: RAT, LIVER, S-9, AROCLOR 1254, Method: PREINCUBATION", "result": "inactive; negative"}, {"measurement": "mutagenic call", "setting": "Test System: UDS RODENT HEPATOCYTES, Strain/Indicator: THY INCORP (NON-S-PHASE), Metabolic Activation: NONE, Method: AUTORADIOGRAPHY", "result": "inactive; negative"}]}, {"smiles": "COP1(=S)OCc2ccccc2O1", "note": "(stereo not drawn)", "values": [{"measurement": "mutagenic call", "setting": "[3]", "result": "active; positive"}, {"measurement": "mutagenic call", "setting": "Test System: AMES SALMONELLA TYPHIMURIUM, Strain/Indicator: TA100, Metabolic Activation: S-9 MIX, Method: STANDARD PLATE", "result": "active; positive"}]}, {"smiles": "Cc1ccc2nsc(N)c2c1", "values": [{"measurement": "mutagenic call", "setting": "[1]", "result": "inactive; negative"}, {"measurement": "mutagenic call", "setting": "Test System: AMES SALMONELLA TYPHIMURIUM, Strain/Indicator: TA98, Metabolic Activation: S-9, Method: STANDARD PLATE", "result": "active; positive"}, {"measurement": "mutagenic call", "setting": "[3]", "result": "inactive; negative"}, {"measurement": "mutagenic call", "setting": "Test System: AMES SALMONELLA TYPHIMURIUM, Strain/Indicator: TA100, Metabolic Activation: S-9, Method: STANDARD PLATE", "result": "active; positive"}, {"measurement": "mutagenic call", "setting": "[5]", "result": "inactive; negative"}, {"measurement": "mutagenic call", "setting": "Test System: AMES SALMONELLA TYPHIMURIUM, Strain/Indicator: TA1535, Metabolic Activation: S-9, Method: STANDARD PLATE", "result": "inactive; negative"}, {"measurement": "mutagenic call", "setting": "[6]", "result": "inactive; negative"}, {"measurement": "mutagenic call", "setting": "Test System: AMES SALMONELLA TYPHIMURIUM, Strain/Indicator: TA1537, Metabolic Activation: S-9, Method: STANDARD PLATE", "result": "active; positive"}]}, {"smiles": "CC1=CC(=C(c2ccc(N)cc2)c2ccc(N)cc2)C=CC1=N", "values": [{"measurement": "mutagenic call", "setting": "[9]", "result": "inactive; negative"}, {"measurement": "mutagenic call", "setting": "Test System: AMES SALMONELLA TYPHIMURIUM, Strain/Indicator: TA98, Metabolic Activation: RAT LIVER S-9, PHENOBARBITAL AND BETA-NAPHTHOFLAVONE, Method: PREINCUBATION", "result": "inactive; negative"}, {"measurement": "mutagenic call", "setting": "[10]", "result": "inactive; negative"}, {"measurement": "mutagenic call", "setting": "Test System: AMES SALMONELLA TYPHIMURIUM, Strain/Indicator: TA100, Metabolic Activation: RAT LIVER S-9, PHENOBARBITAL AND BETA-NAPHTHOFLAVONE, Method: PREINCUBATION", "result": "inactive; negative"}, {"measurement": "mutagenic call", "setting": "Test System: AMES SALMONELLA TYPHIMURIUM, Strain/Indicator: TA100, Method: PREINCUBATION", "result": "active; positive"}, {"measurement": "mutagenic call", "setting": "Test System: AMES SALMONELLA TYPHIMURIUM, Strain/Indicator: TA1535, Metabolic Activation: NONE, Method: PREINCUBATION", "result": "inactive; negative"}, {"measurement": "mutagenic call", "setting": "Test System: AMES SALMONELLA TYPHIMURIUM, Strain/Indicator: TA1535, Metabolic Activation: RAT LIVER S-9, PHENOBARBITAL AND BETA-NAPHTHOFLAVONE, Method: PREINCUBATION", "result": "inactive; negative"}, {"measurement": "mutagenic call", "setting": "Test System: AMES SALMONELLA TYPHIMURIUM, Strain/Indicator: TA1537, Metabolic Activation: NONE, Method: PREINCUBATION", "result": "inactive; negative"}, {"measurement": "mutagenic call", "setting": "Test System: AMES SALMONELLA TYPHIMURIUM, Strain/Indicator: TA1537, Metabolic Activation: RAT LIVER S-9, PHENOBARBITAL AND BETA-NAPHTHOFLAVONE, Method: PREINCUBATION", "result": "inactive; negative"}, {"measurement": "mutagenic call", "setting": "Test System: AMES SALMONELLA TYPHIMURIUM, Strain/Indicator: TA1538, Metabolic Activation: NONE, Method: PREINCUBATION", "result": "inactive; negative"}, {"measurement": "mutagenic call", "setting": "Test System: AMES SALMONELLA TYPHIMURIUM, Strain/Indicator: TA1538, Metabolic Activation: RAT LIVER S-9, PHENOBARBITAL AND BETA-NAPHTHOFLAVONE, Method: PREINCUBATION", "result": "inactive; negative"}, {"measurement": "mutagenic call", "setting": "Test System: E.COLI, Strain/Indicator: WP2UVRA, Metabolic Activation: NONE, Method: PREINCUBATION", "result": "inactive; negative"}, {"measurement": "mutagenic call", "setting": "Test System: E.COLI, Strain/Indicator: WP2UVRA, Metabolic Activation: RAT LIVER S-9, PHENOBARBITAL AND BETA-NAPHTHOFLAVONE, Method: PREINCUBATION", "result": "inactive; negative"}]}]}
